Drawing on patent US20260272924A1, “ISOINDOLINE DERIVATIVE, BENZOINDOLE DERIVATIVE AND USE THEREOF” (SHANGHAI HELIOSON PHARMACEUTICAL CO., LTD., priority 2023, published 2026), this text covers IC50 for ten compounds.

The assay concerns NCI-H929 multiple myeloma cells. Put plainly: Cell Titer-GLO (CTG) assay for proliferation of NCI-H929 cells. Type of assay: cell-based. The settings on record: Homo sapiens, 72 hours. How it is done: 1. Experimental objective: To determine inhibitory activities of compounds on NCI-H929 multiple myeloma cells.
NCI-H929 cells, purchased from Nanjing Cobioer Biotechnology Co., Ltd, were cultured in RPM11640 (Viva; C3010-0500) medium containing 10% fetal bovine serum (Viva, C04002-500) and 1% of penicillin-streptomycin at 37° C. with 5% of C02 and saturated humidity conditions.
The cells in logarithmic growth phase were plated at 5000 cells per well of a 96-well plate and after overnight incubation, compounds at 0.00512 nM, 0.0256 nM, 0.128 nM, 0.64 nM, 3.2 nM, 16 nM, 80 nM, and 400 nM were dosed into the plate with each dose in 2 duplicate wells. Cells were incubated at 37° C., 5% CO2 for 72 hours. After the incubation, the plate was placed at room temperature for half an hour, and then 50 μL of Cell Titer-Glo® (Promega, G7573) was added. The plate was placed on a shaker for uniform mixing for 2 minutes and was placed in the dark at room temperature for 10 minutes. The luminance signal was measured using SpectraMax Paradigm (Molecular Devices).
Cell activity inhibition rate (%)=1 00−(RLUcompound−RLUblank)/(RLUcontrol−RLUblank)×100%, where control refers to the 0.1% DMSO treatment group, and blank refers to the culture medium control. IC50 values and maximum inhibition rates of the compounds were calculated using a nonlinear regression function “Dose-Response-Inhibition” in Graphpad Prism 7.0.
In the case of `Cc1nc(N2CCN(Cc3ccc(Cc4ccc5c6c(cccc46)C(=O)N5C4CCC(=O)NC4=O)cc3)CC2)cc(-n2cc(C(F)(F)F)nn2)n1` (stereo not shown) [Example 73, 3-(6-(4-((4-(2-methyl-6-(4-(trifluoromethyl)-1H-1,2,3-triazol-1-yl)pyrimidin-4-yl)piperazin-1-yl)methyl)benzyl)-2-oxobenzo[cd]indol-1(2H)-yl)piperidin-2,6-dione], the IC50 is 0.03 nM.

`Cc1nc(N2CCN(Cc3ccc(Cc4ccc5c6c(cccc46)C(=O)N5C4CCC(=O)NC4=O)cc3)CC2)cc(-n2cnc(Cl)c2)n1` (stereo not shown) [Example 50, 3-(6-(4-((4-(6-(-4-chloro-1H-imidazol-1-yl)-2-methylpyrimidin-4-yl)piperazin-1-yl)methyl)benzyl)-2-oxobenzo[cd]indol-1(2H)-yl)piperidin-2,6-dione] had an IC50 of 0.01 nM.

Turning to `Cc1ncn(-c2ncc(F)c(N3CCN(C4CN(Cc5ccc(Cc6ccc7c8c(cccc68)C(=O)N7C6CCC(=O)NC6=O)cc5)C4)CC3)n2)n1` (stereo not shown) [Example 49, 3-(6-(4-((3-(4-(5-fluoro-2-(3-methyl-1H-1,2,4-triazol-1-yl)pyrimidin-4-yl)piperazin-1-yl)azetidin-1-yl)methyl)benzyl)-2-oxobenzo[cd]indol-1(2H)-yl)piperidin-2,6-dione], half-maximal inhibition (IC50) was put at 0.003 nM. With `Cc1ncn(-c2nccc(N3CCN(Cc4ccc(Cc5ccc6c7c(cccc57)C(=O)N6C5CCC(=O)NC5=O)cc4)CC3)n2)n1` (stereo not shown) [Example 41, 3-(6-(4-((4-(2-(3-methyl-1H-1,2,4-triazol-1-yl)pyrimidin-4-yl)piperazin-1-yl)methyl)benzyl)-2-oxobenzo[cd]indol-1(2H)-yl)piperidin-2,6-dione], the IC50 is 0.006 nM. Compared with the last compound, the IC50 is about 2-fold higher.

For `O=C1CC[C@H](N2Cc3c(OCc4ccc(CN5CCN([C@H]6CC[C@H](NC(=O)c7ccnc(-n8ccnc8)n7)CC6)CC5)cc4)cccc3C2=O)C(=O)N1` [Example 15, N-((1R,4R)-4-(4-(4-(((2-((S)-2,6-dioxopiperidin-3-yl)-1-oxoisoindolin-4-yl)oxy)methyl)benzyl)piperazin-1-yl)cyclohexyl)-2-(1H-imidazol-1-yl)pyrimidin-4-carboxamide], the IC50 was 0.1 nM. `Cc1cc(C(=O)N2CCN(Cc3ccc(Cc4ccc5c6c(cccc46)C(=O)N5C4CCC(=O)NC4=O)cc3)CC2)nc(-n2ccnc2)n1` (stereo not shown) [Example 11, 3-(6-(4-((4-(2-(1H-imidazol-1-yl)-6-methylpyrimidin-4-carbonyl)piperazin-1-yl)methyl)benzyl)-2-oxobenzo[cd]indol-1(2H)-yl)piperidin-2,6-dione]: half-maximal inhibition (IC50) required 0.05 nM. Compared with the last compound, the IC50 is about 2-fold lower. With `O=C1CCC(N2C(=O)c3cccc4c(Cc5ccc(CN6CCN(c7ccnc(-n8ccnc8C(F)(F)F)n7)CC6)cc5)ccc2c34)C(=O)N1` (stereo not shown) [Example 13, 3-(2-oxo-6-(4-((4-(2-(2-(trifluoromethyl)-1H-imidazol-1-yl)pyrimidin-4-yl)piperazin-1-yl)methyl)benzyl)benzo[cd]indol-1(2H)-yl)piperidin-2,6-dione] the figure was 0.07 nM; with `Cn1cncc1-c1nccc(N2CCN(Cc3ccc(Cc4ccc5c6c(cccc46)C(=O)N5C4CCC(=O)NC4=O)cc3)CC2)n1` (stereo not shown) [Example 20, 3-(6-(4-((4-(2-(1-methyl-1H-imidazol-5-yl)pyrimidin-4-yl)piperazin-1-yl)methyl)benzyl)-2-oxobenzo[cd]indol-1(2H)-yl)piperidin-2,6-dione], 0.01 nM; with `O=C1CC[C@H](N2Cc3c(OCc4ccc(CN5CCN(c6cccc(-c7cncs7)n6)CC5)cc4)cccc3C2=O)C(=O)N1` [Example 19, (S)-3-(1-oxo-4-((4-((4-(6-(thiazol-5-yl)pyridin-2-yl)piperazin-1-yl)methyl)benzyl)oxy)isoindolin-2-yl)piperidin-2,6-dione], 0.3 nM.

Take `O=C1CC[C@H](N2Cc3c(OCc4ccc(CN5CCN(CC6CCN(c7cccc(-n8ccnc8)n7)CC6)CC5)cc4)cccc3C2=O)C(=O)N1` [Example 17, (S)-3-(4-((4-((4-((1-(6-(1H-imidazol-1-yl)pyridin-2-yl)piperidin-4-yl)methyl)piperazin-1-yl)methyl)benzyl)oxy)-1-oxoisoindolin-2-yl)pyridin-2,6-dione]: the IC50 came out at 0.1 nM. Against the preceding compound, the IC50 is about 3-fold lower.

By IC50 is commonly meant the concentration needed to halve the response being measured.
